Reference: US10857236B2, “Sustained release nanocomposite, a process for producing the same and use thereof” (SZEGEDI TUDOMÁNYEGYETEM, priority 2015, dated 2020)
One block for each compound: values may come before it.

Experiments:
[1] = stability study of KYNA in MQ with and without 150 mM NaCl and in buffer
Method: New types of nanocomposites have been prepared within physiological conditions, in the nano-size range for the purpose of crossing the pharmaceutically active ingredients through the blood-brain barrier. […] The amount of the material constituting the composites, than the conditions of the preparation were determined. Stability studies were performed for the active ingredients by ensuring various conditions (pH=3 to 8 in physiological solution and without said physiological solution, in both phosphate and HEPES buffers). […]
The release tests were made in case of KYNA in PBS buffer at pH=7.4. (physiological solution). […]

[2] = in vitro drug release in Franz cell (vertical diffusion cell), kinetic models; type: physicochemical
Method: FIG. 7: A schematic figure of the Franz-cell (vertical diffusion cell) with which the in vitro drug release experiments were carried out. […] The active ingredient release tests were made at two temperatures: at 25 and 37.5° C. (FIGS. 7 and 8).

[3] = KYNA permeability in in vitro blood-brain barrier model; type: in vitro ADME, rat; conditions: Wistar, rat, 20 μM KYNA final concentration, corrected for empty filters, read-out: permeability coefficient Pe
Method: (§1) The permeability of KYNA through the blood-brain barrier from BSA/KYNA/PAH nanocapsules was determined by means of an in vitro blood-brain barrier model. The description of the model is the following: microvessel rat brain endothelial cells were isolated from 2 to 3 weeks old Wistar animals by means of a method described earlier (Wilhelm és munkatársai, 2011). After the removal of the meninges, the brain tissue was dissectioned to small pieces, then it was digested by type 2 collagenase and collagenase/dispase, finally it was centrifuged on percoll gradient. The microvessel fragments were plated on collagenIV/fibronectin-coated Petri dishes and were cultured in DMEM/F12 in the presence of plasma serum and growth factors. […]
(§2) From these samples the concentration of KYNA was determined using an Agilent 1100 HPLC-MS system (Agilent Technologies, Santa Clara, Calif., USA).
(§3) To calculate the permeability coefficient the following formulae were applied: PappdQ/(dT×A×C0), wherein dQ stands for the crossed amount of the material, dT stands for the incubation period of time (1 hour), A stands for the surface of the filter and C0 stands for the starting concentration (20 μM). The values thus calculated were compared to the values measured on empty (not containing cells) filters according to the following method: […]).

[4] = tested on: somatosensory evoked potentials (SEPs); experiment: in vivo amplitudes of somatosensory evoked potentials after peripheral administration; set-up: species or system male Wistar rats; conditions: intraperitoneal administration, 300 mg/kg, n=5
Excerpt: The preparation of the corresponding composite (FIG. 1) was accomplished with the following parameters. […] At a neutral pH the compact structure of the protein offers an opportunity to enclose large amount of kynurenic acid. In the “heart shaped” conformation of the BSA, the hydrophobic parts directed inside the conformation can form hydrogen-bridge, hydrophobic, furthermore ππ interactions with the KYNA molecule. […] After the in vitro drug release experiments the KYNA permeability was investigated with the help of an in vitro blood-brain barrier model. […] The animal experiments were performed on male Wistar rats (300 g, n=30). During the tests the effect of the peripherally administered KYNA was investigated in the central nervous system.

[5] = tested on: microvessel rat brain endothelial cells; experiment: KYNA permeability in in vitro blood-brain barrier model; type: in vitro ADME; conditions: 20 μM KYNA final concentration, 1 hour, corrected for empty filters
Method: as §1, §2, §3

[6] = IBU containing composites, 25° C.
[7] = IBU containing composites, 37.5° C.
[8] = DOPA containing composites, 25° C.
[9] = DOPA containing composites, 37.5° C.
[10] = KYNA containing composites, 25° C.
[11] = KYNA containing composites, 37.5° C.

Compound: CC(C)Cc1ccc(C(C)C(=O)O)cc1 (stereo not shown) [IBU, ibuprofen]
Release rate, depending on the concentration, first-order kd [2, 6]: 0.0064 s⁻¹
Release rate, diffusion controlled, Higuchi kd [2, 6]: 5.6 * 10^−0 s^−1/2
Release rate, not depending on the concentration, zero-order kd [2, 6]: 0.5 s⁻¹
Release rate, depending on the concentration, first-order kd [2, 7]: 0.011 s⁻¹
Release rate, diffusion controlled, Higuchi kd [2, 7]: 8.7 * 10^−0 s^−1/2
Release rate, not depending on the concentration, zero-order kd [2, 7]: 0.77 s⁻¹

Compound: Nc1ccccc1C(=O)C[C@H](N)C(=O)O [L-KYN, L-kynurenin]
change of amplitude of somatosensory evoked potentials [4]: no significant change

Further lines, with some results ahead:

demonstrated stability until ([1]; pH 7.4): 72 h
Compound: NCCc1ccc(O)c(O)c1 [DOPA, dopamine]

stability of KYNA ([1]; HEPES (150 mM NaCl), 0 h): stable
stability of KYNA ([1]; HEPES (150 mM NaCl), 24 h): unstable
stability of KYNA ([1]; HEPES (150 mM NaCl), 48 h): unstable
stability of KYNA ([1]; HEPES (150 mM NaCl), 72 h): unstable
stability of KYNA ([1]; HEPES (150 mM NaCl), 96 h): unstable
demonstrated stability until ([1]; PBS buffer at pH=7.4 (physiological solution), release tests of IBU): 96 h
demonstrated stability until ([1]; PBS buffer at pH=7.4 (physiological solution), release tests of KYNA): 72 h
degrading of KYNA as a result of the buffers ([1]; in buffer): already starts in the first hours
stability of KYNA ([1]; pH 3 (MQ + 150 mM NaCl), 0 h): stable
stability of KYNA ([1]; pH 3 (MQ + 150 mM NaCl), 24 h): stable
stability of KYNA ([1]; pH 3 (MQ + 150 mM NaCl), 48 h): stable
stability of KYNA ([1]; pH 3 (MQ + 150 mM NaCl), 72 h): stable
stability of KYNA ([1]; pH 3 (MQ + 150 mM NaCl), 96 h): unstable
stability of KYNA ([1]; pH 3 (MQ), 0 h): stable
stability of KYNA ([1]; pH 3 (MQ), 24 h): stable
stability of KYNA ([1]; pH 3 (MQ), 48 h): stable
stability of KYNA ([1]; pH 3 (MQ), 72 h): stable
stability of KYNA ([1]; pH 3 (MQ), 96 h): unstable
stability of KYNA ([1]; pH 4 (MQ + 150 mM NaCl), 0 h): stable
stability of KYNA ([1]; pH 4 (MQ + 150 mM NaCl), 24 h): stable
stability of KYNA ([1]; pH 4 (MQ + 150 mM NaCl), 48 h): stable
stability of KYNA ([1]; pH 4 (MQ + 150 mM NaCl), 72 h): stable
stability of KYNA ([1]; pH 4 (MQ + 150 mM NaCl), 96 h): unstable
stability of KYNA ([1]; pH 4 (MQ), 0 h): stable
stability of KYNA ([1]; pH 4 (MQ), 24 h): stable
stability of KYNA ([1]; pH 4 (MQ), 48 h): stable
stability of KYNA ([1]; pH 4 (MQ), 72 h): unstable
stability of KYNA ([1]; pH 4 (MQ), 96 h): unstable
stability of KYNA ([1]; pH 5 (MQ + 150 mM NaCl), 0 h): stable
stability of KYNA ([1]; pH 5 (MQ + 150 mM NaCl), 24 h): stable
stability of KYNA ([1]; pH 5 (MQ + 150 mM NaCl), 48 h): unstable
stability of KYNA ([1]; pH 5 (MQ + 150 mM NaCl), 72 h): unstable
stability of KYNA ([1]; pH 5 (MQ + 150 mM NaCl), 96 h): unstable
stability of KYNA ([1]; pH 5 (MQ), 0 h): stable
stability of KYNA ([1]; pH 5 (MQ), 24 h): stable
stability of KYNA ([1]; pH 5 (MQ), 48 h): stable
stability of KYNA ([1]; pH 5 (MQ), 72 h): stable
stability of KYNA ([1]; pH 5 (MQ), 96 h): unstable
stability of KYNA ([1]; pH 6 (MQ + 150 mM NaCl), 0 h): stable
stability of KYNA ([1]; pH 6 (MQ + 150 mM NaCl), 24 h): stable
stability of KYNA ([1]; pH 6 (MQ + 150 mM NaCl), 48 h): stable
stability of KYNA ([1]; pH 6 (MQ + 150 mM NaCl), 72 h): stable
stability of KYNA ([1]; pH 6 (MQ + 150 mM NaCl), 96 h): unstable
stability of KYNA ([1]; pH 6 (MQ), 0 h): stable
stability of KYNA ([1]; pH 6 (MQ), 24 h): stable
stability of KYNA ([1]; pH 6 (MQ), 48 h): stable
stability of KYNA ([1]; pH 6 (MQ), 72 h): unstable
stability of KYNA ([1]; pH 6 (MQ), 96 h): unstable
stability of KYNA ([1]; pH 7 (MQ + 150 mM NaCl), 0 h): stable
stability of KYNA ([1]; pH 7 (MQ + 150 mM NaCl), 24 h): stable
stability of KYNA ([1]; pH 7 (MQ + 150 mM NaCl), 48 h): stable
stability of KYNA ([1]; pH 7 (MQ + 150 mM NaCl), 72 h): stable
stability of KYNA ([1]; pH 7 (MQ + 150 mM NaCl), 96 h): unstable
stability of KYNA ([1]; pH 7 (MQ), 0 h): stable
stability of KYNA ([1]; pH 7 (MQ), 24 h): stable
stability of KYNA ([1]; pH 7 (MQ), 48 h): stable
stability of KYNA ([1]; pH 7 (MQ), 72 h): unstable
stability of KYNA ([1]; pH 7 (MQ), 96 h): unstable
stability of KYNA ([1]; pH 8 (MQ + 150 mM NaCl), 0 h): stable
stability of KYNA ([1]; pH 8 (MQ + 150 mM NaCl), 24 h): stable
stability of KYNA ([1]; pH 8 (MQ + 150 mM NaCl), 48 h): stable
stability of KYNA ([1]; pH 8 (MQ + 150 mM NaCl), 72 h): stable
stability of KYNA ([1]; pH 8 (MQ + 150 mM NaCl), 96 h): unstable
stability of KYNA ([1]; pH 8 (MQ), 0 h): stable
stability of KYNA ([1]; pH 8 (MQ), 24 h): stable
stability of KYNA ([1]; pH 8 (MQ), 48 h): stable
stability of KYNA ([1]; pH 8 (MQ), 72 h): stable
stability of KYNA ([1]; pH 8 (MQ), 96 h): unstable
Papp at 1 h, 20 µM [3]: 3.71 ×10⁻⁶ cm/s
Compound: O=C(O)c1cc(=O)c2ccccc2[nH]1 [KYNA, kynurenic acid]
Release rate, depending on the concentration, first-order kd [2, 8]: 0.0079 s⁻¹
Release rate, diffusion controlled, Higuchi kd [2, 8]: 6.9 * 10^−0 s^−1/2
Release rate, not depending on the concentration, zero-order kd [2, 8]: 0.63 s⁻¹
Release rate, depending on the concentration, first-order kd [2, 9]: 0.0098 s⁻¹
Release rate, diffusion controlled, Higuchi kd [2, 9]: 7.0 * 10^−0 s^−1/2
Release rate, not depending on the concentration, zero-order kd [2, 9]: 0.0062 s⁻¹
Release rate, depending on the concentration, first-order kd [2, 10]: 0.0015 s⁻¹
Release rate, diffusion controlled, Higuchi kd [2, 10]: 4.9 * 10^−3 s^−1/2
Release rate, not depending on the concentration, zero-order kd [2, 10]: 0.0004 s⁻¹
Release rate, diffusion controlled, Higuchi kd [2, 11]: 1.2 * 10^−2 s^−1/2
Release rate, not depending on the concentration, zero-order kd [2, 11]: 0.001 s⁻¹
kinetic model that characterizes / best fits the release ([2]; in vitro release profiles): Higuchi model
change of amplitude of somatosensory evoked potentials [4]: no significant change

permeability coefficient Pe [5]: 2.96*10^−6 cm/s
Compound: O=C([O-])c1ccccc1-c1c2ccc(=O)cc-2oc2cc([O-])ccc12.[Na+].[Na+] [Na-fluoresceine]
